Measured values from patent publication US20140335251A1, “ANTIFUNGAL FLAVORING COMPOSITIONS” (FIRMENICH SA, priority 2011, published 2014).

Assays:
Type in all cases: cell-based
[1] = tested on: Zygosaccharomyces bailii (DSM 70492); experiment: Growth inhibition in sucrose solution pH 5, OD after 21 days; conditions: for Antifungal activity: pH 5, 21 days at 25° C., OD 380 nm
Description: The term “effective” when used to describe the capacity of a composition to inhibit growth of a yeast or mould strain is defined as the ability of such composition to inhibit growth of the strain in a growth medium consisting of a 105 g/L sucrose solution with an initial inoculum of 10^2-10^3 cfu/mL of such yeast or mould strain, so that the average optical density of the growth medium, as measured at 380 nm for yeast strains and at 500 nm for mould strains, is maintained below 0.2 after 21 days of culture at 25° C. under aerobic conditions. The growth medium of which the optical density is measured consists of the growth medium as it is at the end of the 21 days growth period. It therefore consists of the growth medium (sucrose solution at 105 g/L), together with the organisms which were able to grow during the 21 days culture period and the composition of the invention. For the purposes of the present invention, growth inhibition activity of a given compound against one of the above mentioned strains is measured as follows: A 105 g/L solution of sucrose in water is prepared. Preferably, the sucrose solution is at pH 3±0.2 or at pH 5±0.2, in which case the sucrose solution is more preferably autoclaved at 121° C. for 15 minutes and the pH is re-checked to ensure it remains within the required range. Test samples are prepared in a microtiter plate comprising 100 μL of one of the sucrose solutions prepared above, together with an initial inoculum of the fungal strain of which growth is intended to be inhibited, so as to achieve a microbial level comprised between 10^2 and 10^3 cfu/mL. The composition of which the antifungal activity is intended to be evaluated is then added to the microtiter plate. […] The microtiter plates are then stored in a standard 25° C. incubator under aerobic conditions. The optical density (OD) of each sample is measured just after addition of the composition (control) and after 21 days of incubation. The OD is measured at 380 nm for yeast strains and at 500 nm for mould strains. All tests are done in triplicate to ensure statistical relevance of the results obtained. Growth inhibition of a particular strain by an ingredient at a particular concentration is given if the OD measured after 21 days of culture in these conditions is below 0.2. A 105 g/L solution of sucrose in water at pH 5±0.2 was prepared. The sucrose solution was autoclaved at 121° C. for 15 minutes and the pH was re-checked to ensure it remained within the range. Test samples were then prepared in microtiter plates. […] Composition A was then added to the microtiter plate. […] One well for each mixture of sucrose solution and inoculum was kept free of Composition A, to serve as a control. The microtiter plates were then stored in a standard 25° C. incubator under aerobic conditions. The optical density (OD) of each sample was measured after 21 days of incubation using a Bio-Tek Synergy™ HT Multi-Mode Microplate Reader (from Labtech International, UK). The wavelength was set to 380 nm for yeast strains and to 500 nm for mould strains. All tests were done in triplicate to ensure statistical relevance of the results obtained.

[2] = tested on: Pichia anomala (DSM 70783); experiment: as above; conditions: for Antifungal activity: pH 5, 21 days at 25° C.; for concentration at which active as single ingredient: sucrose solution pH 5, 21 days, tested at 25, 50, 75 ppm
Description: (§1) The term “effective” when used to describe the capacity of a composition to inhibit growth of a yeast or mould strain is defined as the ability of such composition to inhibit growth of the strain in a growth medium consisting of a 105 g/L sucrose solution with an initial inoculum of 10^2-10^3 cfu/mL of such yeast or mould strain, so that the average optical density of the growth medium, as measured at 380 nm for yeast strains and at 500 nm for mould strains, is maintained below 0.2 after 21 days of culture at 25° C. under aerobic conditions. The growth medium of which the optical density is measured consists of the growth medium as it is at the end of the 21 days growth period.
(§2) For the purposes of the present invention, growth inhibition activity of a given compound against one of the above mentioned strains is measured as follows:
(§3) A 105 g/L solution of sucrose in water is prepared. Preferably, the sucrose solution is at pH 3±0.2 or at pH 5±0.2, in which case the sucrose solution is more preferably autoclaved at 121° C. for 15 minutes and the pH is re-checked to ensure it remains within the required range.
(§4) Test samples are prepared in a microtiter plate comprising 100 μL of one of the sucrose solutions prepared above, together with an initial inoculum of the fungal strain of which growth is intended to be inhibited, so as to achieve a microbial level comprised between 10^2 and 10^3 cfu/mL.
(§5) The composition of which the antifungal activity is intended to be evaluated is then added to the microtiter plate. Dilutions of the tested composition in each test sample are prepared to afford the desired final concentration. The microtiter plates are then stored in a standard 25° C. incubator under aerobic conditions.
(§6) The optical density (OD) of each sample is measured just after addition of the composition (control) and after 21 days of incubation. The OD is measured at 380 nm for yeast strains and at 500 nm for mould strains.
(§7) All tests are done in triplicate to ensure statistical relevance of the results obtained.
(§8) Growth inhibition of a particular strain by an ingredient at a particular concentration is given if the OD measured after 21 days of culture in these conditions is below 0.2.
(§9) A 105 g/L solution of sucrose in water at pH 5±0.2 was prepared. The sucrose solution was autoclaved at 121° C. for 15 minutes and the pH was re-checked to ensure it remained within the range.
(§10) Test samples were then prepared in microtiter plates. An amount of 100 μL of sucrose solution prepared above was mixed with an inoculum of 20 μL of one fungal strain, so as to achieve a microbial level comprised between 10^2 and 10^3 cfu/mL.
(§11) Composition A was then added to the microtiter plate. Dilutions were prepared in the microtiter plate for each mixture of sucrose solution and inoculum to afford final concentrations of 75 ppm and 125 ppm of Composition A. One well for each mixture of sucrose solution and inoculum was kept free of Composition A, to serve as a control.
(§12) The microtiter plates were then stored in a standard 25° C. incubator under aerobic conditions.
(§13) The optical density (OD) of each sample was measured after 21 days of incubation using a Bio-Tek Synergy™ HT Multi-Mode Microplate Reader (from Labtech International, UK). The wavelength was set to 380 nm for yeast strains and to 500 nm for mould strains.
(§14) All tests were done in triplicate to ensure statistical relevance of the results obtained.
(§15) 2-Methylhexanoic acid, geranic acid and sorbic acid were separately tested for their antifungal properties using the method described in Example 1 for evaluation of Composition A, except that dilutions were prepared in the microtiter plate for each mixture of sucrose solution and inoculum to afford final concentrations of 25 ppm, 50 ppm and 75 ppm of the tested ingredient. […]

[3] = tested on: Pichia membranaefaciens (DSM 70369); experiment: as above; conditions: for Antifungal activity: pH 5, 21 days at 25° C.; for concentration at which active as single ingredient: sucrose solution pH 5, 21 days, tested at 25, 50, 75 ppm
Description: as §1, §2, §3, §4, §5, §6, §7, §8, §9, §10, §11, §12, §13, §14, §15

[4] = tested on: each of the tested fungi; experiment: Growth inhibition, summary over all tested strains; conditions: even at 75 ppm; strains of Tables 3-4 or 9-10
Description: as §9, §10, §11, §12, §13, §14
2-Methylhexanoic acid, geranic acid and sorbic acid were separately tested for their antifungal properties using the method described in Example 1 for evaluation of Composition A, except that dilutions were prepared in the microtiter plate for each mixture of sucrose solution and inoculum to afford final concentrations of 25 ppm, 50 ppm and 75 ppm of the tested ingredient.
Composition B was then added to the microtiter plate.

[5] = 75 ppm, OD 380 nm (Examples 3-4)

SMILES	Antifungal activity ([1]; 25 ppm)	Antifungal activity ([1]; 50 ppm)	Antifungal activity ([1]; 75 ppm)	Antifungal activity ([2]; 25 ppm, OD 380 nm)	Antifungal activity ([2]; 50 ppm, OD 380 nm)	Antifungal activity ([2]; 75 ppm, OD 380 nm)	Antifungal activity ([3]; 25 ppm, OD 380 nm)	Antifungal activity ([3]; 50 ppm, OD 380 nm)	Antifungal activity ([3]; 75 ppm, OD 380 nm)	antifungal activity as single ingredient against tested strains [4]	Antifungal activity ([2]; 25 ppm, OD 380 nm (Example 4))	Antifungal activity ([2]; 50 ppm, OD 380 nm (Example 4))	Antifungal activity [2, 5]	concentration at which active as single ingredient [2] [ppm]	Antifungal activity ([3]; 25 ppm, OD 380 nm (Example 4))	Antifungal activity ([3]; 50 ppm, OD 380 nm (Example 4))	Antifungal activity [3, 5]	concentration at which active as single ingredient [3] [ppm]	concentration at which active as single ingredient ([1]; sucrose solution pH 5, 21 days, tested at 25, 50, 75 ppm) [ppm]
CCCCC(C)C(=O)O (centres unmarked) [2-Methylhexanoic acid]	I (Letter I (for Inactive) is used when the measured OD was of at least 0.2)	I (Letter I (for Inactive) is used when the measured OD was of at least 0.2)	I (Letter I (for Inactive) is used when the measured OD was of at least 0.2)	I (Letter I (for Inactive) is used when the measured OD was of at least 0.2)	I (Letter I (for Inactive) is used when the measured OD was of at least 0.2)	I (Letter I (for Inactive) is used when the measured OD was of at least 0.2)	I (Letter I (for Inactive) is used when the measured OD was of at least 0.2)	I (Letter I (for Inactive) is used when the measured OD was of at least 0.2)	I (Letter I (for Inactive) is used when the measured OD was of at least 0.2)	inactive									
O=C(O)c1ccccc1 [benzoic acid]											I (Letter I (for Inactive) is used when the measured OD was of at least 0.2)	A (Letter A (for Active) is indicated when the measured OD was below 0.2)	A (Letter A (for Active) is indicated when the measured OD was below 0.2)	50	I (Letter I (for Inactive) is used when the measured OD was of at least 0.2)	I (Letter I (for Inactive) is used when the measured OD was of at least 0.2)	A (Letter A (for Active) is indicated when the measured OD was below 0.2)	75	
C/C=C/C=C/C(=O)O [Sorbic acid]	I (Letter I (for Inactive) is used when the measured OD was of at least 0.2)	I (Letter I (for Inactive) is used when the measured OD was of at least 0.2)	A (Letter A (for Active) is indicated when the measured OD was below 0.2)	I (Letter I (for Inactive) is used when the measured OD was of at least 0.2)	A (Letter A (for Active) is indicated when the measured OD was below 0.2)	A (Letter A (for Active) is indicated when the measured OD was below 0.2)	I (Letter I (for Inactive) is used when the measured OD was of at least 0.2)	I (Letter I (for Inactive) is used when the measured OD was of at least 0.2)	A (Letter A (for Active) is indicated when the measured OD was below 0.2)					50				75	75
CC(C)=CCC/C(C)=C/C(=O)O [Geranic acid]	I (Letter I (for Inactive) is used when the measured OD was of at least 0.2)	I (Letter I (for Inactive) is used when the measured OD was of at least 0.2)	I (Letter I (for Inactive) is used when the measured OD was of at least 0.2)	I (Letter I (for Inactive) is used when the measured OD was of at least 0.2)	I (Letter I (for Inactive) is used when the measured OD was of at least 0.2)	I (Letter I (for Inactive) is used when the measured OD was of at least 0.2)	I (Letter I (for Inactive) is used when the measured OD was of at least 0.2)	I (Letter I (for Inactive) is used when the measured OD was of at least 0.2)	I (Letter I (for Inactive) is used when the measured OD was of at least 0.2)	inactive									
CCC(=O)O [Propanoic acid]										inactive	I (Letter I (for Inactive) is used when the measured OD was of at least 0.2)	I (Letter I (for Inactive) is used when the measured OD was of at least 0.2)	I (Letter I (for Inactive) is used when the measured OD was of at least 0.2)		I (Letter I (for Inactive) is used when the measured OD was of at least 0.2)	I (Letter I (for Inactive) is used when the measured OD was of at least 0.2)	I (Letter I (for Inactive) is used when the measured OD was of at least 0.2)		
